From patent publication US6887658B2, “Methods of identifying non-specific inhibitors of biomolecules” (Northwestern University, priority 2001, dated 2005)
Like-named read-outs stand apart in the source and are kept apart here.

Legend:
AmpC β-lactamase [1] = biological target: T1, AmpC β-lactamase (Escherichia coli, UniProt P00811); conditions: for ↑ IC50 vs. 10x β-lactamase: 10-fold increase in β-lactamase; for ↑ IC50 vs. 10x Enzyme: β-lactamase 10 nM vs 1 nM
AmpC β-lactamase [2] = biological target: T1, AmpC β-lactamase; assay: biochemical
β-galactosidase = β-galactosidase (Escherichia coli, UniProt P00722); assay: biochemical; conditions: for ↑ IC50 in the presence of BSA, against β-galactosidase: 0.1 mg/mL BSA
[3] = Dynamic light scattering (DLS); type: physicochemical
[4] = biological target: phosphoinositide 3-kinase; conditions: original target; read-out: IC50 Original Target(s): PI3K; cited from earlier work
integrase = conditions: original target; read-out: IC50 Original Target(s): integrase; cited from earlier work
chymotrypsin = chymotrypsin (Bos taurus, UniProt P00766); assay: chymotrypsin inhibition enzyme assay; type: biochemical
insulin receptor = insulin receptor (Homo sapiens, UniProt P06213); conditions: original target; footnote b: Kd; read-out: Kd Original Target(s): insulin receptor; cited from earlier work
[5] = test system: model enzymes (β-lactamase, chymotrypsin, DHFR, β-galactosidase); type: biochemical
prion = conditions: original target; read-out: IC50 Original Target(s): prion; cited from earlier work
[6] = biological target: triosephosphate isomerase (Plasmodium falciparum, UniProt Q07412); conditions: read-out: IC50 Original Target(s): TIM; cited from earlier work
[7] = type: physicochemical; conditions: 625 μM in 20 mM Tris, pH 7.2
thymidylate synthase = conditions: original target; read-out: IC50 Original Target(s): TS; cited from earlier work
kinesin = conditions: original target; read-out: IC50 Original Target(s): kinesin; cited from earlier work
[8] = test system: endothelial nitric oxide synthase; conditions: original target; read-out: IC50 Original Target(s): eNOS; cited from earlier work
[9] = test system: neuronal nitric oxide synthase; conditions: original target; read-out: IC50 Original Target(s): nNOS; cited from earlier work
HIV Tar RNA = conditions: original target; read-out: IC50 Original Target(s): HIV Tar RNA; cited from earlier work
[10] = Table 6, incubation with β-lactamase, 5 min
[11] = Table 4, 50 mM KPi, at the concentration under DLS conc.
[12] = Table 2, 5 min preincubation of inhibitor and enzyme vs none
[13] = Table 6, read-out: IC50 vs. chymo.

Sequence of β-galactosidase (P00722 2-1024 limits assumed): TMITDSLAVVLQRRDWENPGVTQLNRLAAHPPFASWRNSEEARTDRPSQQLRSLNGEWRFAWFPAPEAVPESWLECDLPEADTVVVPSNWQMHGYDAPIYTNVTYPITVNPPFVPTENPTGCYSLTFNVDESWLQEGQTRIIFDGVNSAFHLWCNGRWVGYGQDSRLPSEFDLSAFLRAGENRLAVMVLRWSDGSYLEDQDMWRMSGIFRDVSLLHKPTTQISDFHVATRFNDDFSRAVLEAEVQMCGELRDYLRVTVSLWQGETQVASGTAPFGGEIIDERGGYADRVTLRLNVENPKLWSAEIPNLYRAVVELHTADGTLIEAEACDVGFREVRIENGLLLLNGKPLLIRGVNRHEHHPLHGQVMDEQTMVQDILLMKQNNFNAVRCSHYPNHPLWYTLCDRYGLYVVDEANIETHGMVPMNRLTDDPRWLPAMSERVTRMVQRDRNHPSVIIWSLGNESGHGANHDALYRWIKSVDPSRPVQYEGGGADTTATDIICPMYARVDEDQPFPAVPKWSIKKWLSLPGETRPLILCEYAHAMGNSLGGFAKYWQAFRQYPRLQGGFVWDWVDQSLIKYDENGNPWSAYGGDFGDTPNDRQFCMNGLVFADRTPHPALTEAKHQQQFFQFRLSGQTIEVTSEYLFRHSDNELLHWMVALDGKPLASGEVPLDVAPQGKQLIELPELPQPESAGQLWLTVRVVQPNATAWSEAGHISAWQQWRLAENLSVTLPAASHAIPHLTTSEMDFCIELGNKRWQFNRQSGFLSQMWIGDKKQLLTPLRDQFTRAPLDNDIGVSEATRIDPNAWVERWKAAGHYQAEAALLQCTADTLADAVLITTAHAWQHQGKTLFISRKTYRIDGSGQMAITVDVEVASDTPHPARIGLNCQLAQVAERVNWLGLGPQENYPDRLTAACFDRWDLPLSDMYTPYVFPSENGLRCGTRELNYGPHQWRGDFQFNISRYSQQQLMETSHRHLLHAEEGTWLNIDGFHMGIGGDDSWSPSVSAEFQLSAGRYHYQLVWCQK
T1 sequence (P00811 20-377 limits assumed): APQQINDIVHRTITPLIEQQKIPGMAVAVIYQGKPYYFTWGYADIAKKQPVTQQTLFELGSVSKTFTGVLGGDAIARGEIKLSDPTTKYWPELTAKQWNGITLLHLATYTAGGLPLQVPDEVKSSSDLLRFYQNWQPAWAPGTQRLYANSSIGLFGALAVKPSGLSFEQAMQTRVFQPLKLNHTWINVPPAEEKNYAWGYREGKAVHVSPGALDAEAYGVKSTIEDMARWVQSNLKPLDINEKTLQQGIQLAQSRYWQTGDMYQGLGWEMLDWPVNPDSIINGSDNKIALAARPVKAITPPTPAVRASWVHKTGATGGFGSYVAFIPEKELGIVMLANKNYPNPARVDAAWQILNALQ
Sequence of triosephosphate isomerase (Q07412 whole entry): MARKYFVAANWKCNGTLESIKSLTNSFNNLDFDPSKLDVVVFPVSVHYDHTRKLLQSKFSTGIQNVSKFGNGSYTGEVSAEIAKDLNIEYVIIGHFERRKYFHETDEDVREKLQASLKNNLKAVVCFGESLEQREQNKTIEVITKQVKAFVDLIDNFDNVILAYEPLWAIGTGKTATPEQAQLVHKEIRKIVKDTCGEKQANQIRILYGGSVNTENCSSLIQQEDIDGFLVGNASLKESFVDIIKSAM
Sequence of insulin receptor (P06213 28-1382, species assumed): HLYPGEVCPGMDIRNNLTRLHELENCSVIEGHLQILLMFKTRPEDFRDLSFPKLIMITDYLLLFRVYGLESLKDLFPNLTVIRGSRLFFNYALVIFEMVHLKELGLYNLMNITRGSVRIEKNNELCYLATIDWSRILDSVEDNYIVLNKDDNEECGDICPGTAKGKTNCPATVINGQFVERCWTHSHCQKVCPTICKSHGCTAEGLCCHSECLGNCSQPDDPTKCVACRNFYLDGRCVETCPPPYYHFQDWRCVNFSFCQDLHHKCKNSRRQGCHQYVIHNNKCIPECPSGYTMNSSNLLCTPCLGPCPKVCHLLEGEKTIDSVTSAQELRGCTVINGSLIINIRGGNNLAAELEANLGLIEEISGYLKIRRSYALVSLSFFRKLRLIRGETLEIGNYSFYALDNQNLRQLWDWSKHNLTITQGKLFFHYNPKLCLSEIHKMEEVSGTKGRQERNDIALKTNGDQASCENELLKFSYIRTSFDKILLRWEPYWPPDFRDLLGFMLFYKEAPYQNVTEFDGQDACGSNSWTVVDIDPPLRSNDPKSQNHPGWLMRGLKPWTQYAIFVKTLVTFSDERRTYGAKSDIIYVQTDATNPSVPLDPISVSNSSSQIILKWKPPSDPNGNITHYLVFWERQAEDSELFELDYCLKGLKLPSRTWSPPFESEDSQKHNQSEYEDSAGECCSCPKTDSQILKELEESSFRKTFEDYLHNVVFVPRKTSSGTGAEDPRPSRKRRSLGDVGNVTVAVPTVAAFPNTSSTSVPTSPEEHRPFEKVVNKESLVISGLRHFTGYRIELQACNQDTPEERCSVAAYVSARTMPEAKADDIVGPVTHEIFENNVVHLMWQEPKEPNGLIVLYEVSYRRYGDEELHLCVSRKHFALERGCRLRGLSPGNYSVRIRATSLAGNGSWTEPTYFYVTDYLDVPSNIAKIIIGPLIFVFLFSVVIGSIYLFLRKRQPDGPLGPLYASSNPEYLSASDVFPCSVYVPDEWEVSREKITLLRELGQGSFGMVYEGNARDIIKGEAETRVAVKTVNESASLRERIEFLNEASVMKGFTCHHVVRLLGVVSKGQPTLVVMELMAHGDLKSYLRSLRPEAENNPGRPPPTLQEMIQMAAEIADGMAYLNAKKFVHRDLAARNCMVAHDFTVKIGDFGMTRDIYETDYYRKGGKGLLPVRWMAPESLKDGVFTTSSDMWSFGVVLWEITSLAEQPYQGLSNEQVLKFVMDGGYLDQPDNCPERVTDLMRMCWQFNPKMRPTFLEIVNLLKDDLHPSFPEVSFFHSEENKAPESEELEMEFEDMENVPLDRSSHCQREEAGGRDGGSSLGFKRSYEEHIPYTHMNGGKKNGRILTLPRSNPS

## O=S(=O)(O)Cc1cc2cc(S(=O)(=O)O)c(/N=N/c3ccc(Br)cc3S(=O)(=O)O)c(O)c2c(O)c1/N=N/c1ccc(Br)cc1S(=O)(=O)O
AmpC β-lactamase [1]; Table 6
  ↑ IC50 vs. 10x β-lactamase: >50-fold
AmpC β-lactamase [1]; [10]
  ↓ IC50 with Incubation: 2-fold
AmpC β-lactamase [2]
  IC50: 80 µM

## O=C1O/C(=C\Nc2ccc(Oc3ccccc3)cc2)c2ccccc21 [drawing 34]
β-galactosidase
  ↑ IC50 in the presence of BSA, against β-galactosidase: 9 fold

## O=C(N/N=C/c1ccccc1O)C(=O)N/N=C/c1ccccc1O
[3]; DLS in 5 mM KPi
  Diameter, 5 mM KPi: 389.3 ± 55.4 nm
[3]; DLS in 500 mM KPi
  Diameter, 500 mM KPi: 426.6 ± 23.8 nm
[3]; [11]
  DLS Diameter: 394.6 ± 12.5 nm
  DLS Intensity: 26.4 ± 5.1 kcps

## Oc1ccc(/N=N/c2ccc(Br)cc2)cc1 [drawing 33]
β-galactosidase
  ↑ IC50 in the presence of BSA, against β-galactosidase: 8 fold

## O=c1c(O)c(-c2ccc(O)c(O)c2)oc2cc(O)cc(O)c12 [quercetin]
β-galactosidase; Table 1, 37° C.
  IC50: 220 µM
[4]
  IC50: 3.8 µM
integrase
  IC50: 11 µM

## O=C1O/C(=C\Nc2ccc(Oc3ccccc3)cc2)c2ccccc21 [drawing 3]
AmpC β-lactamase [2]
  IC50: 5 µM

## OB(O)c1cc2ccccc2s1 [Benzo[b]thiophene-2-boronic acid]
[3]; 50 mM KPi
  particle formation in solution by DLS (autocorrelation function): not observed to form particles
[3]; DLS in 5 mM KPi
  Diameter, 5 mM KPi: No particles
[3]; DLS in 50 mM KPi
  Diameter, 50 mM KPi: No particles
[3]; DLS in 500 mM KPi
  Diameter, 500 mM KPi: No particles
[3]; [11]
  DLS Diameter: No particles
  DLS Intensity: 0.9 ± 0.2 kcps
AmpC β-lactamase [1]; [12]
  ↓ IC50 with Incubation: No change
AmpC β-lactamase [1]; Table 2
  ↑ IC50 vs. 10x Enzyme: No change

## O=C1Nc2cccc(O)c2C1Cc1ccc2c(c1)CCCC2 (stereo not drawn)
chymotrypsin; [13]
  IC50: 40 µM
AmpC β-lactamase [1]; Table 6
  ↑ IC50 vs. 10x β-lactamase: 6-fold
AmpC β-lactamase [1]; [10]
  ↓ IC50 with Incubation: 3-fold
AmpC β-lactamase [2]
  IC50: 15 µM

## O=C1OC2(c3cc(I)c(O)c(I)c3Oc3c2cc(I)c(O)c3I)c2c(Cl)c(Cl)c(Cl)c(Cl)c21 [Rose Bengal lactone]
Insulin receptor
  Kd: 20 µM

## O=C(O)c1cc(-c2ccc(Cl)cc2)nc(-c2ccc(Nc3ccc(Cl)cc3)cc2)c1
chymotrypsin; [13]
  IC50: 2 µM
AmpC β-lactamase [1]; Table 6
  ↑ IC50 vs. 10x β-lactamase: 4-fold
AmpC β-lactamase [1]; [10]
  ↓ IC50 with Incubation: 12-fold
AmpC β-lactamase [2]
  IC50: 2 µM

## Nc1c(/N=N/c2ccc(-c3ccc(/N=N/c4cc(S(=O)(=O)O)c5ccccc5c4N)cc3)cc2)cc(S(=O)(=O)O)c2ccccc12 [Congo Red]
[3]
  DLS Diameter: 202.6 ± 22.5 nm
  DLS Intensity: 131.1 ± 64.3 kcps
  particle formation in solution by DLS (autocorrelation function): did form particles detectable by DLS
[5]
  inhibition of the model enzymes: inhibit the model enzymes
prion
  IC50: 1 µM
[6]
  IC50: 30.4 µM

## O=S(=O)(O)c1cccc2cccc(Nc3ccccc3)c12 [ANS, 8-anili-no-1-naphthalene-sulfonic acid]
[3]
  DLS Diameter: No particles
  DLS Intensity: 0.5 ± 0.1 kcps
  Diameter, 5 mM KPi: No particles
  Diameter, 50 mM KPi: No particles
  Diameter, 500 mM KPi: No particles
[7]
  particles observed by TEM: Particles were not observed
[5]
  inhibition of the model enzymes: does not inhibit the model enzymes

## O=C1C(I)=CC(=C(c2cc(I)c(O)c(I)c2)c2ccccc2C(=O)O)C=C1I [tetraiodophenolphthalein]
[3]; 50 mM KPi
  particle formation in solution by DLS (autocorrelation function): presence of particles
[3]; DLS in 5 mM KPi
  Diameter, 5 mM KPi: 86.2 ± 10.5 nm
[3]; DLS in 500 mM KPi
  Diameter, 500 mM KPi: 320.4 ± 38.8 nm
[3]; [11]
  DLS Diameter: 153.4 ± 26.0 nm
  DLS Intensity: 42.2 ± 3.9 kcps
[3]; same conditions as TEM
  DLS mean diameter in the TEM conditions: 83.2 ± 6.5 nm
Thymidylate synthase
  IC50: 3 µM
kinesin
  IC50: 30 µM

## CC(C)c1ccc(/C=C2/C(=O)Nc3ccccc32)cc1 [3-(4-isopropylbenzylidene)indolin-2-one]
[3]; DLS in 5 mM KPi
  Diameter, 5 mM KPi: 247.1 ± 12.8 nm
[3]; DLS in 500 mM KPi
  Diameter, 500 mM KPi: 494.3 ± 48.1 nm
[3]; [11]
  DLS Diameter: 379.0 ± 14.1 nm
  DLS Intensity: 43.8 ± 5.7 kcps

## tris (dicarboxymethylene) fullerene-C3
chymotrypsin; Table 1, read-out: IC50 Chymotrypsin
  IC50: 60 µM
AmpC β-lactamase [1]; [12]
  ↓ IC50 with Incubation: 2-fold
AmpC β-lactamase [1]; Table 2
  ↑ IC50 vs. 10x Enzyme: >50-fold
AmpC β-lactamase [1]; read-out: IC50 β-lactamase, Table 1, 50 mM KPi pH 7.0, 5 min incubation, 1 nM enzyme
  IC50: 7 µM
[8]
  IC50: 17 µM
[9]
  IC50: 24 µM

## Oc1ccc(/N=N/c2ccc(Br)cc2)cc1 [drawing 40]
[3]; DLS in 5 mM KPi
  Diameter, 5 mM KPi: 140.2 ± 12.1 nm
[3]; DLS in 500 mM KPi
  Diameter, 500 mM KPi: 267.4 ± 24.5 nm
[3]; [11]
  DLS Diameter: 176.2 ± 7.9 nm
  DLS Intensity: 12.6 ± 3.9 kcps

## O=C1O/C(=C\Nc2ccc(Oc3ccccc3)cc2)c2ccccc21 [drawing 41]
[3]; [11]
  DLS Diameter: 94.7 ± 4.2 nm
  DLS Intensity: 16.2 ± 1.1 kcps

## CC(C)(C)c1ccc(-c2cc(C(=O)O)cc(-c3ccc(Cl)c(O)c3)n2)cc1
chymotrypsin; [13]
  IC50: 13 µM
AmpC β-lactamase [1]; Table 6
  ↑ IC50 vs. 10x β-lactamase: 12-fold
AmpC β-lactamase [1]; [10]
  ↓ IC50 with Incubation: >50-fold
AmpC β-lactamase [2]
  IC50: 4 µM

## CCCC[n+]1ccc(-c2cc(C(=O)O)cc(-c3ccc(Cl)cc3)n2)cc1
AmpC β-lactamase [1]; Table 6
  ↑ IC50 vs. 10x β-lactamase: 20-fold
AmpC β-lactamase [1]; [10]
  ↓ IC50 with Incubation: 24-fold
AmpC β-lactamase [2]
  IC50: 8 µM

## O=C1C2C(C(=O)N1Nc1ccc([N+](=O)[O-])cc1[N+](=O)[O-])[C@@]1(Cl)C(Cl)=C(Cl)[C@]2(Cl)C1(Cl)Cl (stereo partly drawn)
[3]; DLS in 5 mM KPi
  Diameter, 5 mM KPi: 143.5 ± 7.9 nm
[3]; [11]
  DLS Diameter: 418.6 ± 38.8 nm
  DLS Intensity: 24.9 ± 3.1 kcps

## O=S(=O)(O)c1cc(O)c(/N=N/c2ccc3ccccc3c2O)c2ccccc12
HIV Tar RNA
  IC50: 50 µM
